The record followed here is PMC10336134, “Effects of dialkoxybenzenes against Varroa destructor and identification of 1-allyloxy-4-propoxybenzene as a promising acaricide candidate” (Scientific Reports, 2023).

One data set concerns T1, Honey bee AChE (AmAChE).
T1 construct: gene AmAChE1; native isolate from nurse bees
As to the kind of experiment: Ellman assay. The format is biochemical, Apis mellifera. To be noted: no test compound; sodium phosphate pH 7.6, DTNB, ethanol/Tween 20; bee isolate; read-out: KM (× 10^-5 M). The source says: Ellman assay on Honey bee AChE (AmAChE)
Background: DTNB colorimetry detects thiols as they appear.

Data set [1] relates to T2, Varroa destructor AChE (VdAChE).
T2 construct: native extract from pre-frozen mites
Kind of data set: Ellman assay, […] nm. The class given is biochemical. To be noted: no test compound; sodium phosphate pH 7.6, DTNB, ethanol/Tween 20; mite extract; read-out: KM (× 10^-5 M).

Data set [2] deals with T3, Human expressed AChE (hAChE) (Homo sapiens, UniProt P22303).
T3 construct: recombinant, commercial lyophilized powder (Sigma C1682)
As to the kind of experiment: Ellman assay, Michaelis-Menten kinetics with inhibitor. The format is biochemical. As to conditions: acetylthiocholine; 0.5-3 mM compound; pH 7.6; competitive.

Substrate in the data set “purified protein”: CC(=O)SCC[N+](C)(C)C
Kind of data set: purified protein. The class given is biochemical, Homo sapiens. To be noted: no test compound, sodium phosphate pH 7.6, DTNB, ethanol/Tween 20.

For orientation: Km means the concentration of substrate that gives half-maximal velocity. Turning to `CC(=O)SCC[N+](C)(C)C` [acetylthiocholine iodide], the values for the Michaelis constant (Km) (with Honey bee AChE (AmAChE); in data set [1]) were 22 µM and 14 µM, respectively.
As to `CCN(CC)C(=O)c1cccc(C)c1` [DEET], the “Ellman assay, Michaelis-Menten kinetics with inhibitor” value in data set [2] was “all three forms of the enzyme, hAChE, AmAChE and VdAChE, were competitively inhibited by DEET”.

B1: Human expressed AChE (hAChE) (Homo sapiens) (protein)
chain: EGREDAELLVTVRGGRLRGIRLKTPGGPVSAFLGIPFAEPPMGPRRFLPPEPKQPWSGVVDATTFQSVCYQYVDTLYPGFEGTEMWNPNRELSEDCLYLNVWTPYPRPTSPTPVLVWIYGGGFYSGASSLDVYDGRFLVQAERTVLVSMNYRVGAFGFLALPGSREAPGNVGLLDQRLALQWVQENVAAFGGDPTSVTLFGESAGAASVGMHLLSPPSRGLFHRAVLQSGAPNGPWATVGMGEARRRATQLAHLVGCPPGGTGGNDTELVACLRTRPAQVLVNHEWHVLPQESVFRFSFVPVVDGDFLSDTPEALINAGDFHGLQVLVGVVKDEGSYFLVYGAPGFSKDNESLISRAEFLAGVRVGVPQVSDLAAEAVVLHYTDWLHPEDPARLREALSDVVGDHNVVCPVAQLAGRLAAQGARVYAYVFEHRASTLSWPLWMGVPHGYEIEFIFGIPLDPSRNYTAEEKIFAQRLMRYWANFARTGDPNEPRDPKAPQWPPYTAGAQQYVSLDLRPLEVRRGLRAQACAFWNRFLPKLLSATDTLDEAERQWKAEFHRWSSYMVHWKNQFDHYSKQDRCSDL
notes: recombinant, commercial lyophilized powder (Sigma C1682)
As usually defined, the Vmax is the rate approached at saturating substrate. For B1, in “purified protein”, the Michaelis-Menten constant (Km) result is on record as “(1.0 ± 0.2) × 10^-4 M” and the Vmax was 51 µM/min.
